In a melting point compilation (Tetko et al.; mined from patent text by program, amines drawn as free bases though some values may be those of a salt):

First: Cc1nccn1-c1ccc(N)cc1C(F)(F)F
Second: O=C(NC(=O)c1c(F)cccc1F)Nc1cc(Cl)cc(C(F)(F)F)c1F
The melting point of the first is lower: 117 to 119 °C for the first, 187 to 189 °C for the second.

Compared with `COc1ccc(OC)c(S(=O)(=O)n2c(COC(C)C(=O)O)cc3cc(Cl)ccc32)c1` (stereo not given), `COc1cc2c(cc1OC)C(Cc1ccc(NC(C)=O)c(I)c1)N(C(=O)C(F)(F)F)CC2` (stereo not given) is lower in melting point: 196 to 198 °C for the first, 174 to 175 °C for the second.

Going from `Cc1cccc(-c2[nH]nc(N3CCN(C)CC3)c2-c2ccncc2)c1` to `Cc1cccc(-c2n[nH]cc2-c2ccnc(-c3ccc(-n4ccnc4C)cc3)c2)n1`, the melting point falls from 262 °C to 128 °C.

Compared with `CC(C)(C)OC(=O)C(C)(C)Oc1ccc2c(c1)Nc1ccccc1S2`, `O=C(O)Cc1ccc(OCc2ccccc2)c(Cl)c1` is lower in melting point: 138 to 140 °C for the first, 121 to 123 °C for the second.

First: N#CCCCCn1cnc(NC(N)=NCC(F)(F)F)n1
Second: CCCCCS(=O)(=O)NC(=O)/C=C/c1cc(OCCCC)nn1Cc1ccc(C(F)(F)F)cc1
The melting point of the first is higher: 200 to 201 °C for the first, 159 to 160 °C for the second.

First: CCOc1nn(-c2ccc(C(F)(F)F)cc2)cc1CCCOc1ccc(CCC(=O)O)cc1OC
Second: COc1ccc(CC(=O)NC(=NOCC2CC2)c2c(F)cccc2C(F)(F)F)cc1
The melting point of the first is higher: 125 to 126 °C for the first, 75 to 76 °C for the second.

Compared with `O=c1c2c(N3CCNCC3)cc(Cl)cc2n(Cc2ccccc2)c(=O)n1Cc1ccccc1F`, `O=C(NCc1ccc2c(c1)OCO2)c1ccc2[nH]c(=O)n(Cc3ccccc3)c(=O)c2c1` is higher in melting point: 98 to 109 °C for the first, 176 °C for the second.

First: CCOc1cn(C2CC(O)C(CO)O2)c(=O)[nH]c1=O (stereo not given)
Second: NC(=O)c1ccc2nc(C(=O)NCc3ccnc(OCC4CCOC4)c3)[nH]c(=O)c2c1 (stereo not given)
The melting point of the first is lower: 179 to 181 °C for the first, 237 to 239 °C for the second.

First: COc1cc(F)c(C=O)cc1O
Second: O=[N+]([O-])c1cc(O)ccc1F
The melting point of the first is higher: 153 to 154 °C for the first, 86 to 87 °C for the second.

Compared with `CCOP(=O)(C=Cc1ccc(N)cc1)OCC`, `CCOC(=O)c1c(OCC)nsc1NC(=O)Oc1ccccc1` is higher in melting point: 81 °C for the first, 130 °C for the second.

First: O=C1CCC(Nc2ncc3ncnc(Nc4ccc(F)c(Cl)c4)c3n2)CC1
Second: Cc1ccc(Cc2c[nH]c(NCCCC3CCCc4cccnc43)nc2=O)cn1 (stereo not given)
The melting point of the first is higher: 232 to 234 °C for the first, 75 to 80 °C for the second.

Compared with `CC(C(=O)O)=C1CCC2C3CCC4=CC(=O)CCC4(C)C3CCC12C` (stereo not given), `COc1ccc(C2=NN(C3CCN(C(=O)CN4CCN(C)CC4)CC3)C(=O)C(C)(C)C2)c2c1OC(C)(C)C2` is lower in melting point: 266 to 270 °C for the first, 121 to 123 °C for the second.

First: N#CCC(=O)Nc1ccc(OCc2cccc(F)c2)cc1
Second: O=C1c2ccccc2C(=O)N1CCc1ccc(F)cc1
The melting point of the first is higher: 164 to 166 °C for the first, 106 to 107 °C for the second.

Compared with `O=C(O)[C@H](CCc1ccc(F)cc1F)NC(=O)C(F)(F)F`, `C=C(C(=O)OC)N(Cc1ccccc1NC(=O)C(F)(F)F)S(=O)(=O)c1ccc(OC)cc1` is higher in melting point: 62 to 83.5 °C for the first, 120 to 121 °C for the second.

First: Oc1ccc(-c2nc3cc(O)ccc3o2)c(Cl)c1
Second: O=Cc1ccc2c(c1)CC[C@H](Cc1ccc(O)cc1)O2
The melting point of the first is higher: 253 to 255 °C for the first, 134 to 135 °C for the second.

First: Cc1cc(C)c2cc(N)c(=O)[nH]c2n1
Second: Cc1cccc(-n2ncc(C)c2-c2cc3cnccc3s2)n1
The melting point of the first is higher: 238 to 240 °C for the first, 155 to 156 °C for the second.

Compared with `CCCC(C)(C)c1nsc(N=CN(C)C)c1C#N`, `CCCc1nn(C)c2c(=O)n(CCOc3ccc(SC(C)(C)C(=O)O)cc3)c(CC)nc12` is higher in melting point: 65 to 67 °C for the first, 104 to 106 °C for the second.

First: CCn1c2cc(C)ccc2c2ccc3ccccc3c21
Second: CC=NOCc1nc2c(N)nc3ccccc3c2n1CC(C)C
The melting point of the first is lower: 104 to 105 °C for the first, 155 to 156 °C for the second.

First: N#Cc1ccc(C=C2CCCC2)s1
Second: CCC12CCC(c3ccc(Cl)cc3)(OC1)OC2
The melting point of the first is higher: 98 to 100 °C for the first, 78 °C for the second.

First: COC(=O)/C=C/n1cnc2ccc(C(C)C)cc2c1=O
Second: CCCCc1nc2c(N)nc3cc(/C=C/C(=O)OC)ccc3c2n1CC(C)C
The melting point of the first is lower: 145 °C for the first, 193 to 194 °C for the second.

First: CCN(CC)c1ccc(-c2cnc3[nH]cc(C(=O)C4(C)CCCCC4)c3n2)cc1
Second: CC(=O)Oc1ccc(NC(=O)c2ccc(Sc3cc4c(cc3C)C(C)(C)CCC4(C)C)cc2)cc1
The melting point of the first is higher: 211 to 213 °C for the first, 186 to 187 °C for the second.

First: CC(C)C1(C)N=C(c2nc3occ([N+](=O)[O-])c3cc2C(=O)O)NC1=O (stereo not given)
Second: O=C1NC(=O)C2(c3ccc4ncccc4n3)C=CC=CC12 (stereo not given)
The melting point of the first is higher: 220 to 237 °C for the first, 206 °C for the second.

Compared with `O=C(O)Cc1ccc2c(c1)CC(CCNS(=O)(=O)c1ccc(Cl)cc1)C2` (stereo not given), `O=S(=O)(Nc1cccc2cc(-c3ncns3)[nH]c12)c1cccs1` is higher in melting point: 146 to 147 °C for the first, 232 to 233 °C for the second.

First: OCc1ccc(I)nc1
Second: CNC(=NO)NCc1ccccc1
The melting point of the first is higher: 102 °C for the first, 97 to 99 °C for the second.

First: NS(=O)(=O)Oc1ccccc1
Second: CCOC(=O)CCC(NC(=O)c1ccc(NC2CCc3cc4nc(C)n(COC(=O)C(C)(C)C)c(=O)c4cc32)cc1)C(=O)OCC (mixture of isomers)
The melting point of the first is lower: 81 to 85 °C for the first, 156 °C for the second.
